Results reported in PubChem BioAssay (NCI).
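Briefly, cells in 96-well plates were exposed to five compound concentrations for 48 h, and endpoints were estimated by linear interpolation. TGI marks complete inhibition of growth.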

Assays:
Assay in all cases: NCI anticancer screen, dose series, 48 h
[1] = tested on: HOP-62 NSCLC
[2] = tested on: LOX IMVI melanoma
[3] = tested on: KM12 colon
[4] = tested on: SK-MEL-5 melanoma
[5] = tested on: SF-268 CNS
[6] = tested on: SW-620 colon
[7] = tested on: RPMI-8226 leukemia
[8] = tested on: MDA-N
[9] = tested on: COLO 205 colon
[10] = tested on: CAKI-1 renal
[11] = tested on: MOLT-4 leukemia
[12] = tested on: OVCAR-3 ovarian
[13] = tested on: A498 renal
[14] = tested on: HOP-92 NSCLC
[15] = tested on: HS 578T breast
[16] = tested on: MDA-MB-435
[17] = tested on: SN12C renal
[18] = tested on: SNB-19 CNS
[19] = tested on: SK-MEL-2 melanoma
[20] = tested on: HCT-15 colon
[21] = tested on: NCI-H226 lung
[22] = tested on: A549 NSCLC
[23] = tested on: MALME-3M melanoma
[24] = tested on: IGROV1 ovarian
[25] = tested on: U251 CNS
[26] = tested on: HT29 colon
[27] = tested on: K-562 leukemia
[28] = tested on: OVCAR-5 ovarian
[29] = tested on: SR leukemia
[30] = tested on: NCI/ADR-RES ovarian
[31] = tested on: ACHN renal
[32] = tested on: DU-145 prostate
[33] = tested on: RXF 393 renal
[34] = tested on: SK-OV-3 ovarian
[35] = tested on: HL-60(TB) leukemia
[36] = tested on: NCI-H522 lung
[37] = tested on: UO-31 renal
[38] = tested on: OVCAR-4 ovarian
[39] = tested on: 786-0 renal
[40] = tested on: CCRF-CEM leukemia
[41] = tested on: SF-295 CNS
[42] = tested on: NCI-H23 lung
[43] = tested on: NCI-H460 lung
[44] = tested on: UACC-257 melanoma
[45] = tested on: M14 melanoma
[46] = tested on: TK-10 renal
[47] = tested on: PC-3 prostate
[48] = tested on: UACC-62 melanoma
[49] = tested on: OVCAR-8 ovarian
[50] = tested on: HCT-116 colon
[51] = tested on: SK-MEL-28 melanoma
[52] = tested on: MDA-MB-231 breast
[53] = tested on: EKVX NSCLC
[54] = tested on: SNB-75 CNS
[55] = tested on: SF-539 CNS
[56] = tested on: BT-549 breast

SMILES: CC(C)=CCNc1ncnc2c1c(C#N)cn2C1OC(CO)C(O)C1O (stereo unspecified)
- TGI [1]: > 100 µM
- TGI [2]: > 100 µM
- TGI [3]: > 100 µM
- TGI [4]: > 100 µM
- TGI [5]: > 100 µM
- TGI [6]: > 100 µM
- TGI [7]: > 72.9 µM
- TGI [8]: > 100 µM
- TGI [9]: 6.76 µM
- TGI [10]: > 100 µM
- TGI [11]: > 100 µM
- TGI [12]: 77.1 µM
- TGI [13]: > 72.6 µM
- TGI [14]: > 100 µM
- TGI [15]: > 100 µM
- TGI [16]: > 100 µM
- TGI [17]: > 100 µM
- TGI [18]: > 100 µM
- TGI [19]: > 100 µM
- TGI [20]: > 100 µM
- TGI [21]: > 100 µM
- TGI [22]: > 100 µM
- TGI [23]: > 100 µM
- TGI [24]: > 100 µM
- TGI [25]: > 100 µM
- TGI [26]: > 100 µM
- TGI [27]: > 100 µM
- TGI [28]: > 100 µM
- TGI [29]: > 100 µM
- TGI [30]: > 100 µM
- TGI [31]: > 100 µM
- TGI [32]: > 100 µM
- TGI [33]: > 100 µM
- TGI [34]: > 100 µM
- TGI [35]: 67.9 µM
- TGI [36]: > 50.3 µM
- TGI [37]: > 100 µM
- TGI [38]: 23.3 µM
- TGI [39]: > 100 µM
- TGI [40]: 81.5 µM
- TGI [41]: > 100 µM
- TGI [42]: > 100 µM
- TGI [43]: 33.6 µM
- TGI [44]: > 100 µM
- TGI [45]: > 100 µM
- TGI [46]: 24.7 µM
- TGI [47]: > 100 µM
- TGI [48]: > 100 µM
- TGI [49]: > 100 µM
- TGI [50]: > 100 µM
- TGI [51]: > 100 µM
- TGI [52]: > 100 µM
- TGI [53]: > 100 µM
- TGI [54]: > 100 µM
- TGI [55]: > 100 µM
- TGI [56]: > 100 µM
